In publication PMC4729491, “The Cellular Thioredoxin-1/Thioredoxin Reductase-1 Driven Oxidoreduction Represents a Chemotherapeutic Target for HIV-1 Entry Inhibition” (PLoS ONE, 2016):
Several values for one entry are separate records, joined by “and”; a condition that tells them apart may be missing. Identical values can stand only once.

Key:
HIV-2(ROD) = assay: Inhibition of HIV-2(ROD)-induced giant cell formation in CEM cell cultures; assay type: cell-based; conditions: CEM cells
Protocol: (§1) To study the antiviral activity in transformed cells, CEM cells were suspended in fresh culture medium and infected with HIV-1(IIIB) or HIV-2(ROD) at 100 x CCID50 (cell culture infective dose 50%) per ml of cell suspension. Infected cell suspension (100 μl; 3 x 10^5 cells/ml) was transferred to a 96-well microplate, mixed with 100 μl of the appropriate dilutions of compounds, and further incubated at 37°C. After 4 days, giant cell formation was recorded microscopically and the number of giant cells was estimated microscopically as percentage of the number of giant cells present in the non-treated virus-infected cell cultures.

[1] = previously known structural properties ref 20-22; cited from earlier work
[2] = test system: HuT-78/HIV-1 and Sup-T1 cells; assay: cells; assay type: cell-based; conditions: cocultures of HuT-78/HIV-1 and Sup-T1 cells, ~24 hours; read-out: IC50 inhibition of syncytia formation
Protocol: Persistently infected HuT-78/HIV-1 cells were thoroughly washed to eliminate free virions. Next, 1 x 10^5 HuT-78/HIV-1 cells were co-cultivated with 1 x 10^5 Sup-T1 cells in 96-well plates (200 μl/well) during 20 h at 37°C, in the presence or absence of a serial dilution of compound. Afterwards, the formation of syncytia was evaluated microscopically. The EC50 was defined as the compound concentration required to suppress syncytia formation by 50%.

HIV-1(HE) = assay: Antiviral activity in PHA-stimulated PBMCs (p24 ELISA), HIV-1(HE); assay type: cell-based; conditions: PHA-stimulated PBMCs; mean ± SD; read-out: EC50 HIV-1 (HE)
Protocol: To test the antiviral activity in fresh, PHA-stimulated PBMCs, an experiment was performed as previously described. Briefly, the cells were preincubated with HIV-1(IIIB), HIV-1(BaL) or HIV-1(HE) for 1 h at 37°C, using a viral load of 1000 x CCID50 per ml. Then, cell suspensions containing virus and 2 x 10^5 PBMCs were seeded in a 96-well microtiter plate and a serial dilution of compound was added, in a total volume of 200 μl. After 4 days, the cells were passaged and fresh culture medium, containing IL-2 and compound, was added. Three days later, cellular supernatants were harvested and viral replication in the presence of the compounds was quantified using a p24 enzyme-linked immunosorbent assay (ELISA) (Perkin Elmer, Brussels, Belgium). The half maximal effective concentration (EC50) was defined as the compound concentration that is required to block viral replication by 50%.

HIV-1(IIIB) = assay: microbe, parasite or virus in culture; assay type: cell-based; conditions: CEM cells
Protocol: as §1

For “6-(butyltelluro)-6-deoxy-β-cyclodextrin [TE-2]”, the “Ratio IC50/EC50 HIV-2 (CEM)” value (HIV-2(ROD)) is listed as 167, the EC50 (HIV-2(ROD); concentration required to protect against cytopathogenicity of HIV by 50%, mean ± SD, read-out: EC50 HIV-2 (ROD)) is listed as 1500 ± 520 nM and the Hydrophobicity [1] is listed as “Hydrophilic”. For the same substance, the IC50 [2] was > 250000 nM, the EC50 (HIV-1(HE)) was 6600 ± 4200 nM and the “Ratio IC50/EC50 HIV-1 (CEM)” value (HIV-1(IIIB)) was 227. The EC50 (HIV-1(IIIB); concentration required to protect against cytopathogenicity of HIV by 50%, mean ± SD, read-out: EC50 HIV-1 (IIIB)) was 1100 ± 250 nM and the “antiviral selectivity SI = IC50/EC50” value (HIV-1(IIIB); over HIV-1 and HIV-2) was 167–227 and > 100.
